Source: ChEMBL document CHEMBL1201862, “PubChem BioAssay data set” (2004)
Active and inactive are the calls of the source.

Experiments:
[1] = biological target: Acyl-homoserine lactone acylase PvdQ (Pseudomonas aeruginosa (strain LESB58), UniProt Q9I194); experiment: PvdQ acylase enzyme activity blockers – biochemical, fluorescence, plate reader and imaging, cherry-picks, dose response (AID 493231)
[2] = biological target: Neurotensin receptor type 1 (Homo sapiens, UniProt P30989); format: functional;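 note: Image-based confirmatory dose-response assay measuring agonist activity at NTR1; NTR1-expressing U2OS osteosarcoma cells imaged for beta-arrestin GFP spot formation; agonist potency where compounds increase beta-arrestin recruitment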
Chain of Neurotensin receptor type 1 (P30989 whole entry): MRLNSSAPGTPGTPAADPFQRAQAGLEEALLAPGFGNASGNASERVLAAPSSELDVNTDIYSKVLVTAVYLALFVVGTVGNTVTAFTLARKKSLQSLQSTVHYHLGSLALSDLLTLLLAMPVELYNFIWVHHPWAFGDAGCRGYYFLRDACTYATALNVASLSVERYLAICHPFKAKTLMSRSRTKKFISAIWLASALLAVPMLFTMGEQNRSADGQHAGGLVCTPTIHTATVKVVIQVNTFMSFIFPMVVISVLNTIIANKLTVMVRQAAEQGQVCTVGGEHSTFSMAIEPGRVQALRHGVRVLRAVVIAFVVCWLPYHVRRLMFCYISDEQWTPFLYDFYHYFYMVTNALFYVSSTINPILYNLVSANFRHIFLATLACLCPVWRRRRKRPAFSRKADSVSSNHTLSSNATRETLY

Bcl-2-like protein 10 = biological target: T1, Bcl-2-like protein 10 (Homo sapiens, UniProt Q9HD36); experiment: Bcl-B/TR3 peptide binding disruption – biochemical, fluorescence polarization, FITC-TR3 peptide, selectivity assay for Bfl-1 inhibitor project, primary screen (AID 748);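 note: fluorescence polarization from a fluorescein-labelled TR3 peptide binding purified Bcl-B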
T1 sequence (Q9HD36 whole entry): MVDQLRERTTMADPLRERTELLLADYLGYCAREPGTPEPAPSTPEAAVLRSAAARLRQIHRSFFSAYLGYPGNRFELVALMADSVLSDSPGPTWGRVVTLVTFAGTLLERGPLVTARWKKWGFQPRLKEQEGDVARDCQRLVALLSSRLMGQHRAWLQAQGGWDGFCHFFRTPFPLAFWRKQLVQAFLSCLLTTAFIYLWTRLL

[3] = biological target: Cyclin-dependent kinase 5/CDK5 activator 1 (Homo sapiens, UniProt Q00535); experiment: blockade of human CDK5 activity – biochemical, cherry-picked samples, set 2, dose response (AID 504545)
Chain of Cyclin-dependent kinase 5/CDK5 activator 1 (Q00535 whole entry): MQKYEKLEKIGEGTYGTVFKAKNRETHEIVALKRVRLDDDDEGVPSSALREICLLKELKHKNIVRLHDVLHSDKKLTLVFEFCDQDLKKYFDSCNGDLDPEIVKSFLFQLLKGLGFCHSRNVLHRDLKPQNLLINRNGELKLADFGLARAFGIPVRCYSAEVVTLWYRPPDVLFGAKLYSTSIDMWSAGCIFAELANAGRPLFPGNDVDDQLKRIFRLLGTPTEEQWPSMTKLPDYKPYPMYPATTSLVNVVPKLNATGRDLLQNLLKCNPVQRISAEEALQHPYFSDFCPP
Chain of Cyclin-dependent kinase 5/CDK5 activator 1 (Q15078 whole entry, further chain): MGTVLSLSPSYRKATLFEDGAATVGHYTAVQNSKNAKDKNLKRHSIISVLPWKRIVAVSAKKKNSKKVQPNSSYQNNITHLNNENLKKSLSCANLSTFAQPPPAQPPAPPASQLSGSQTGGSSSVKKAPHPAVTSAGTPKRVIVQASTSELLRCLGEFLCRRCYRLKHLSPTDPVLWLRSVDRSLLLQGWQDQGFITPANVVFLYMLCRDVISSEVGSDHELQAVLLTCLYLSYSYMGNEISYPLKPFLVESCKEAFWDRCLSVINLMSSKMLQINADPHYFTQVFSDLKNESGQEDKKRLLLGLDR

Leucine aminopeptidase = biological target: T2, Leucine aminopeptidase (Plasmodium falciparum 3D7, UniProt Q8IL11); experiment: P. falciparum M17LAP inhibitors, primary screen, biochemical, fluorogenic H-Leu-NHMec substrate, 1536-well (AID 1619); format: functional
T2 sequence (Q8IL11 whole entry): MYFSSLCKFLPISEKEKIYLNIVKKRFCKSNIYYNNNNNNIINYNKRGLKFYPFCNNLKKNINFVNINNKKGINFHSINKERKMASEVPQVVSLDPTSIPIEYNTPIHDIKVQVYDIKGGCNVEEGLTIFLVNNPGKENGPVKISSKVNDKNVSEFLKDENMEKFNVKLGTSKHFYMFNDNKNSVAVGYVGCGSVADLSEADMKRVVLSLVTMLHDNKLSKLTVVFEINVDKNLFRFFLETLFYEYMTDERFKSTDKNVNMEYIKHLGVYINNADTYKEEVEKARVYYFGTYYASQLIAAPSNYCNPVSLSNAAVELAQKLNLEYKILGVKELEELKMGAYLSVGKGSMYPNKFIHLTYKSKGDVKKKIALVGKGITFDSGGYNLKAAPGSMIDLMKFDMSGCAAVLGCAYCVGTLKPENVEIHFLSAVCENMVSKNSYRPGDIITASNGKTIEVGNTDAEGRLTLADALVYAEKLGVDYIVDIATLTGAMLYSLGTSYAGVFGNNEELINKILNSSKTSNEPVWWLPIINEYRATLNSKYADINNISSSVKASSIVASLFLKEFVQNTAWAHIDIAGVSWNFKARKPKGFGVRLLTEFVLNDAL

Aspartyl aminopeptidase = biological target: T3, Aspartyl aminopeptidase (Plasmodium falciparum 3D7, UniProt Q8I2J3)
T3 sequence (Q8I2J3 whole entry): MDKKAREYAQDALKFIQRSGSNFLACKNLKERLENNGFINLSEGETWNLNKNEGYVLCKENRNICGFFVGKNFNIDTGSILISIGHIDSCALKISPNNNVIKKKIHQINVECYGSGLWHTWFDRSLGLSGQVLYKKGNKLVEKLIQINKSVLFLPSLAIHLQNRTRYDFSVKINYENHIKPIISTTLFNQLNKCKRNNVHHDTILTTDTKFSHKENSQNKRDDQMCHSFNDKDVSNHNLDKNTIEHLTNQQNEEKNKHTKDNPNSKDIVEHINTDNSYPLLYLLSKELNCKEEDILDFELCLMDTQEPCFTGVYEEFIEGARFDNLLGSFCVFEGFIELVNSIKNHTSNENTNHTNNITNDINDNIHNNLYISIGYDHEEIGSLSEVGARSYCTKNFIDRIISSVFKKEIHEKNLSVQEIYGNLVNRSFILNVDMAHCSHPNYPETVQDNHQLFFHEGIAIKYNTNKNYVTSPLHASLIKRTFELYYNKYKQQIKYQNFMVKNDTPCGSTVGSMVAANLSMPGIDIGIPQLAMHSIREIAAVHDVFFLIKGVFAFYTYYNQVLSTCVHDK

Procathepsin L = Procathepsin L (Homo sapiens, UniProt P07711)
Chain of Procathepsin L (P07711 whole entry): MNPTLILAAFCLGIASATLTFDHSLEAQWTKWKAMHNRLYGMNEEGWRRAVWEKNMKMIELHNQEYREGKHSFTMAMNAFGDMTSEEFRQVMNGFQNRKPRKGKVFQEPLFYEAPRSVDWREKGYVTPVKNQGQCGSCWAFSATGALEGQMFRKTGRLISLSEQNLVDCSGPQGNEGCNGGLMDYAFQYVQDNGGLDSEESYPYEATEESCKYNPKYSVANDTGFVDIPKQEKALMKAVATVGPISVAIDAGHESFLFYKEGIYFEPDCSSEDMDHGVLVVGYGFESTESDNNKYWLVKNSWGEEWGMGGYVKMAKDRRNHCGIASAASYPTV

Protein Rev = Protein Rev (Human immunodeficiency virus type 1 group M subtype B (isolate HXB2)(HIV-1), UniProt P04618); experiment: blockers of HIV Rev/RRE RNA complex – biochemical, fluorescence polarization, HIV-1, dose response (AID 434976); set-up: species or system Human immunodeficiency virus 1
Chain of Protein Rev (P04618 whole entry): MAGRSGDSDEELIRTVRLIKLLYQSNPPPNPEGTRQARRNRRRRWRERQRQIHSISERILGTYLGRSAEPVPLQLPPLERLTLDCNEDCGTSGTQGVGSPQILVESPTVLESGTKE

[4] = biological target: Female germline-specific tumor suppressor gld-1 (Caenorhabditis elegans, UniProt Q17339); experiment: blockers of GLD-1/TGE RNA complex formation – biochemical, fluorescence polarization, C. elegans, dose response (AID 2802);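 note: fluorescence polarization of labeled TGE RNA bound by purified gld-1 protein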
Chain of Female germline-specific tumor suppressor gld-1 (Q17339 whole entry): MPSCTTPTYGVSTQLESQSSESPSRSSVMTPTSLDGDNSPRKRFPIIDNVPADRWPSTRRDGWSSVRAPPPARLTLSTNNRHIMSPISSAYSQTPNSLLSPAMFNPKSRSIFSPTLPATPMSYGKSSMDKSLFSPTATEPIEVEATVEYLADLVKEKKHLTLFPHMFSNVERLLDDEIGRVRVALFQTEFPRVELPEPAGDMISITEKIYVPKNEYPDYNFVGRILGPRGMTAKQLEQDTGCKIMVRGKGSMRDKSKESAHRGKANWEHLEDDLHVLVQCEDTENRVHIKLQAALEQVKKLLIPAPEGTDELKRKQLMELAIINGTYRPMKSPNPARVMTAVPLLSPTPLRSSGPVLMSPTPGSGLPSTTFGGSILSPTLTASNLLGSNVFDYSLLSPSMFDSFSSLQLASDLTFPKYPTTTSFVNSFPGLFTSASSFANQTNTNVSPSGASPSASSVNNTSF

[5] = biological target: T4, Polyadenylate-binding protein 1 (Homo sapiens, UniProt P11940); experiment: MLLE binding blockers, Cy5 peptide tracer – biochemical, fluorescence polarization, Cy5-PAM2 peptide, secondary, miRNA deadenylation inhibitor project, dose response (AID 602260); format: functional; conditions: read-out: IC50_Mean
T4 sequence (P11940 whole entry, the tested form may be a part): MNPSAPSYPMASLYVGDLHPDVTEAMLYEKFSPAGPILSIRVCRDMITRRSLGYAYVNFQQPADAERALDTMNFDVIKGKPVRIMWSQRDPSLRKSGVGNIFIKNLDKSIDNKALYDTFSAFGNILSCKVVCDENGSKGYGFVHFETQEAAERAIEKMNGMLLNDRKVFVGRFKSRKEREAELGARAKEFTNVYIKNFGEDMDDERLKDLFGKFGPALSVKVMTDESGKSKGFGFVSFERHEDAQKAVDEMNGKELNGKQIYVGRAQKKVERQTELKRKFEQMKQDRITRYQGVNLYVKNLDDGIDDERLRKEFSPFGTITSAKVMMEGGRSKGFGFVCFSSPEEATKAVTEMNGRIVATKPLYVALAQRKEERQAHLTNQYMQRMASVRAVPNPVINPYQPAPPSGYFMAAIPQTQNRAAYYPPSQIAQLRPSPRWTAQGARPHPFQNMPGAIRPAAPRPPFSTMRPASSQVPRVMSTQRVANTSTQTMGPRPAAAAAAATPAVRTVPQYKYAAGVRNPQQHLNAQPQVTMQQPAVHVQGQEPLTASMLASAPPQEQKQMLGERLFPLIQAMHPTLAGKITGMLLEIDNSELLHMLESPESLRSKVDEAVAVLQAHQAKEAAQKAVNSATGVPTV

[6] = biological target: T4, Polyadenylate-binding protein 1; experiment: MLLE domain peptide-binding blockers, IC50 – biochemical, fluorescence polarization, FITC-PAM2 peptide, dose response (AID 602259); format: functional; conditions: read-out: IC50_Mean
[7] = biological target: T5, DNA repair and recombination protein RAD54-like (Homo sapiens, UniProt Q92698); experiment: RAD54 Holliday junction migration blockers – biochemical, fluorescence, cherry-picked samples, dose series, confirmation (AID 651657); format: functional
T5 sequence (Q92698 whole entry): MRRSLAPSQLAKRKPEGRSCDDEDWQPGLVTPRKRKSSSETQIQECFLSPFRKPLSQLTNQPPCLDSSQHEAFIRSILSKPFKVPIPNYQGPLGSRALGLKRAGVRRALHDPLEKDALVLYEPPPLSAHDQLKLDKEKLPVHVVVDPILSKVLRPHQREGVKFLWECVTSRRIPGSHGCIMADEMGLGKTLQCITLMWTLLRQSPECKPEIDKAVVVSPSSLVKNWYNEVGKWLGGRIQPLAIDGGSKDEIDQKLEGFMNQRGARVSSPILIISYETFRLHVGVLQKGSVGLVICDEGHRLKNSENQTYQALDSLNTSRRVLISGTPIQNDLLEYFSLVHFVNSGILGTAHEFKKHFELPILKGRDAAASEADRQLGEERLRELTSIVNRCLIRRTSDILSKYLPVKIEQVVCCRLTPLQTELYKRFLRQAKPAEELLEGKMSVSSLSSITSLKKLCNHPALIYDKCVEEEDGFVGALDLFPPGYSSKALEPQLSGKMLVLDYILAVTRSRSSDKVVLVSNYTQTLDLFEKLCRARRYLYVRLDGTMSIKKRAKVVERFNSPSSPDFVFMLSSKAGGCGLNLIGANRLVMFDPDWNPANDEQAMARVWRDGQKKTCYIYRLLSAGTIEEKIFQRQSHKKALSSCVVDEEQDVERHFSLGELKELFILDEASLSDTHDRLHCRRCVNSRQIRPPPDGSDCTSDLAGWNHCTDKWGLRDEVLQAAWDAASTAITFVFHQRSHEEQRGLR

[8] = A cytotoxicity screen of small molecule inhibitors of the PhoP region in Salmonella typhi identified in the primary screen. [Related pubchem assays: 1850, 1864, 1985 ]; format: functional
Cytochrome P450 2C9 = Cytochrome P450 2C9 (Homo sapiens, UniProt P11712); conditions: Potency
Chain of Cytochrome P450 2C9 (P11712 whole entry): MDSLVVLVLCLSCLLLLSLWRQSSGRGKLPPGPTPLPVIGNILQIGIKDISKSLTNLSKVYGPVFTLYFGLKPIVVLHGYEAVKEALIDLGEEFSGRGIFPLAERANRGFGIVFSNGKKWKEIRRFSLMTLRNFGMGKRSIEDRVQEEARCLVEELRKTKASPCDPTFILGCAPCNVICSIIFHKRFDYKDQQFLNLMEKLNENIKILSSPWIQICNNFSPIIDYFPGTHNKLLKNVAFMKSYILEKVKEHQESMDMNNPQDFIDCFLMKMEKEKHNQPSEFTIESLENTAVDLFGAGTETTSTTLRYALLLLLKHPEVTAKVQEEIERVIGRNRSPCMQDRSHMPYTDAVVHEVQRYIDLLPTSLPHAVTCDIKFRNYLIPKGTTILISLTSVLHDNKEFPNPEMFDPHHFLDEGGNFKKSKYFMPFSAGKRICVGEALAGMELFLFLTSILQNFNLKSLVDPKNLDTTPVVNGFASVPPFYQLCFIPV

[9] = biological target: Eukaryotic translation initiation factor 4H (Homo sapiens, UniProt Q15056); experiment: eIF4H binding inhibition – biochemical, uHTS, fluorescence polarization, translation initiation inhibitor project, primary screen (AID 2012)
[10] = biological target: T4, Polyadenylate-binding protein 1; experiment: blockers of PABP interaction with poly(A) – biochemical, fluorescence polarization, […] (AID 2014)
[11] = biological target: DNA dC->dU-editing enzyme APOBEC-3A (Homo sapiens, UniProt P31941); experiment: Dose Response confirmation of small molecule APOBEC3A DNA Deaminase Inhibitors via a fluorescence-based single-stranded DNA deaminase assay. [Related pubchem assays (depositor defined):AID493011, AID493024]; format: functional
Chain of DNA dC->dU-editing enzyme APOBEC-3A (P31941 whole entry): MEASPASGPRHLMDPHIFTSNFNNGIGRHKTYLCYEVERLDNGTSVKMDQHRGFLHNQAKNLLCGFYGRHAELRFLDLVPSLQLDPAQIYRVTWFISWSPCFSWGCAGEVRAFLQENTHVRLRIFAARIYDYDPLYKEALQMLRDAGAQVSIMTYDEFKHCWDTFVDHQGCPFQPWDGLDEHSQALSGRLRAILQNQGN

[12] = biological target: DNA dC->dU-editing enzyme APOBEC-3G (Homo sapiens, UniProt Q9HC16); format: functional;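 note: Dose-response counterscreen measuring inhibition of APOBEC3G DNA deaminase activity, run while confirming APOBEC3A inhibitors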
Chain of DNA dC->dU-editing enzyme APOBEC-3G (Q9HC16 whole entry): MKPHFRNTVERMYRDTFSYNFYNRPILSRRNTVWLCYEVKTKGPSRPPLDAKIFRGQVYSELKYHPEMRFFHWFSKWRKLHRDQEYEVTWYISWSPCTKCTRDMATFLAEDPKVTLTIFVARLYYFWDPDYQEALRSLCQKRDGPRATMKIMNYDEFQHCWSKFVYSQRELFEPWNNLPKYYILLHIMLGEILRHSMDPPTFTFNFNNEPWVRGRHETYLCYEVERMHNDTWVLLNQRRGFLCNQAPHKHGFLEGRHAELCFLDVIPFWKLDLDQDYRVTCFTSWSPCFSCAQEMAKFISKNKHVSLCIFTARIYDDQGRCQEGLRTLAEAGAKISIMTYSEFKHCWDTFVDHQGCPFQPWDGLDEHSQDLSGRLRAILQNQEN

Protein Tat = Protein Tat (Human immunodeficiency virus type 1 group M subtype B (isolate HXB2)(HIV-1), UniProt P04608); format: functional;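 note: tat binding to TAR RNA read out by fluorescence polarization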
Chain of Protein Tat (P04608 whole entry): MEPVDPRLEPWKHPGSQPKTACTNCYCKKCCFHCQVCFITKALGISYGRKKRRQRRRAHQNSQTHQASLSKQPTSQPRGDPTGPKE

[13] = viability loss in THP-1 monocytes – THP-1 cells, cytotoxicity control for Vif-APOBEC3G degradation inhibitor project, dose response (AID 1117359); format: functional; conditions: THP-1

Chain of Acyl-homoserine lactone acylase PvdQ (Q9I194 24-193 limits assumed): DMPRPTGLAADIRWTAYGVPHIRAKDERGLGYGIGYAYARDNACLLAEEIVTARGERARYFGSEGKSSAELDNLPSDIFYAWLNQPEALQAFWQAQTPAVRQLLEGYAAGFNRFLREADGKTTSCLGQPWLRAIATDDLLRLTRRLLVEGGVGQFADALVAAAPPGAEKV
Chain of Acyl-homoserine lactone acylase PvdQ (Q9I194 217-762 limits assumed): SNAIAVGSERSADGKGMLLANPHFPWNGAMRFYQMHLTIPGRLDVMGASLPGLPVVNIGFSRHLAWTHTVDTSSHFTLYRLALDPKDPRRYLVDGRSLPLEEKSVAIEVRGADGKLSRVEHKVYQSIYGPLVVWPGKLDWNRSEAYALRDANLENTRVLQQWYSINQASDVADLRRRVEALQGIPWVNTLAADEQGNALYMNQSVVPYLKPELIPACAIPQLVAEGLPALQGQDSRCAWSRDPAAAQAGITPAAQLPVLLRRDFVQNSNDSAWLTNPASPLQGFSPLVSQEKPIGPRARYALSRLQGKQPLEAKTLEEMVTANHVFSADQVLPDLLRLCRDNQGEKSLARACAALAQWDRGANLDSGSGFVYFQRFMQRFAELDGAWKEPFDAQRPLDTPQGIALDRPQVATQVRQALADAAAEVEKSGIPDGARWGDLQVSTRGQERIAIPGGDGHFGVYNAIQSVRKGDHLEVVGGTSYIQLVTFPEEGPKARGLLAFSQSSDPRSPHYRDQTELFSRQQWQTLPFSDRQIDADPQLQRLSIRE

Cc1cc(C)nc(N(C#N)Cc2ccc(Cl)cc2)n1
AC50 [1]: 21.9 µM (active)

CCCCn1c(SCC(=O)N2CCC(C)CC2)nc2cc(S(N)(=O)=O)ccc21
EC50 [2]: 20.7 µM (inactive)

COc1ccc(-c2nc3n(n2)C(c2cccnc2)C(C(N)=O)=C(C)N3)cc1 (centres undefined)
IC50 (Bcl-2-like protein 10): > 100 µM (inactive)

COc1cc(C(=O)N2CCN(c3ccccn3)CC2)cc(OC)c1OC
AC50 [3]: 2.75 µM (active)

O=C(CSc1nnc[nH]1)OCN1C(=O)c2ccccc2C1=O
IC50 (Leucine aminopeptidase): 64.4 µM (active)
IC50 (Aspartyl aminopeptidase): 0.35 µM (active)
IC50 (Procathepsin L): > 59.6 µM (not active)

Cc1ccc[n+](-c2nc([O-])sc2C=NNc2ccc([N+](=O)[O-])cc2)c1
IC50 (Protein Rev): 10.1 µM (not active)
IC50 [4]: 3.96 µM (active)
IC50 [5]: > 66 µM (inactive)
IC50 [6]: 33.3 µM (inactive)

COc1cc2c(C#N)c(N3CCN(C)CC3)nc(N)c2c(N)n1
IC50 (Bcl-2-like protein 10): > 100 µM (inactive)
AC50 [7]: 28.9 µM (active)

COc1nnc(-c2ccc(N3CCOCC3)c(NC(=O)c3ccc(C)cc3)c2)c2ccccc12
EC50 [8]: > 50 µM (active)

Cc1cc(C)nc(N(C#N)Cc2ccccc2)n1
AC50 [1]: 9.18 µM (active)

NCCC[C@@H](CC(=O)N[C@@H]1CCCC[C@H]1C(=O)N[C@H](CC(=O)N[C@@H](CCC(=O)O)CC(=O)O)Cc1ccccc1)NC(=O)C[C@H](CO)NC(=O)[C@@H]1CCCC[C@H]1N
AC50 (Cytochrome P450 2C9): 39.8 µM (inconclusive)

Cc1ccc(NC2=NCCCS2)cc1Cl
EC50 [8]: > 50 µM (active)

CCN1C(NCCOC)=N[C@@H](c2cccc(F)c2)C(C(=O)OC)=C1C
IC50 [9]: > 100 µM (inactive)
IC50 [10]: 12.8 µM (active)
IC50 [11]: 3.86 µM (active)
IC50 [12]: 5.2 µM (active)

CCOC(=O)NC(=O)COC(=O)c1ccc(Sc2nnc[nH]2)c([N+](=O)[O-])c1
IC50 (Aspartyl aminopeptidase): 0.609 µM (active)
IC50 (Procathepsin L): > 59.6 µM (not active)

CN1CCN(c2ncc3nc(-c4cccc(C#N)c4)c(=O)n(C[C@H]4CCCO4)c3n2)CC1
AC50 (Cytochrome P450 2C9): 25.1 µM (inconclusive)

NC(=O)c1cc([N+](=O)[O-])c(Cl)cc1NCc1cccnc1
AC50 [3]: 14.3 µM (active)

COc1ccc(/C=N/c2c(-c3ccco3)nc3ccccn23)cc1OC
IC50 (Protein Rev): 56.1 µM (not active)
IC50 [4]: 3.71 µM (active)
IC50 (Protein Tat): 8.15 µM (inconclusive)
CC50 [13]: > 40 µM (active)
